In PMC5015216, “Change in decay rates of dioxin-like compounds in Yusho patients” (Environmental Health, 2016):
Where two headings read alike, the source gives them in different places.

Legend:
[1] = Longitudinal blood concentration / body burden in Yusho cohort 2002-2010, second-order regression of log body burden; type: in vivo, human (Yusho patients)
Source text: The subjects were 354 patients whose blood concentration of 2,3,4,7,8-PeCDF had been measured three or more times at annual Yusho medical checkups between 2002 and 2010, i.e., 34–42 years since exposure, and for whom the period from the first to last measurement was over 4 years. We examined two chemicals: 2,3,4,7,8-PeCDF, which is the causative chemical, and octachlorodibenzodioxin (OCDD), which is a chemical found in Yusho patients but less commonly in the general public. This research was approved by Nara Medical University Ethics Committee (No. 281–2).
For the logarithm of body burden, which was calculated from concentration and weight, we examined the second derivative by second-order regression. The body burden Cit of patient i at time t is given by:1 logCit=βi+α1t+α2t^2+γ1w1it+γ2w2it
where t is the time, with t = 0 denoting 2006 (middle of the observation period), α2 is the coefficient for a second-order derivative, α1 is the first-order derivative at time t = 0, βi is the reference value for each individual, W1it is the weight and W2it is the lipid in blood (%) of patient i at time t, and γj is the coefficient for weight and lipid in blood. Aylward et al. used an estimate of body fat as volume of distribution, but we used weight and lipid in blood.
We combined all observed concentrations into equation (2):2 y=X⋅β+T⋅α+W⋅γ+ε
where y is the vector of the logarithm of dioxins and dioxin-like compounds in blood lipid concentration, Xβ is the base concentration for each patient, Tα is the change in time, Wγ is an adjustment term according to weight and lipid in blood, and ε is an observation error. X is a matrix with the total number of measurements rows and number of patient columns. T is a matrix with the total number of measurement rows and two columns, second-order and first-order for time. W is the matrix with the total number of measurement rows and two columns, weight and lipid. Equation (3) is a matrix form:3 y=XTWβαγ+ε
By solving multiple linear regressions with the lm function in R, we could estimate first- and second-order derivatives. It was assumed that patients in the same group had same trend with regard to time. […] For the case of one patient and no second-order coefficient measurements, equation (3) equals leads to an equation for estimation of decay rate:4 ka=lnCt2−lnCt1/Δt
We estimated the first- and second-order coefficients, equivalent to the decay rate and change in decay rate, for OCDD and 2,3,4,7,8-PeCDF for each patient group shown in Table 1.

[2] = cited from earlier work
[3] = patient group 2,3,4,7,8-PeCDF concentration range 0–10 pg/g lipid
[4] = patient group concentration range 0–10 pg/g lipid
[5] = patient group concentration range 10–20 pg/g lipid
[6] = patient group concentration range 20–50 pg/g lipid
[7] = patient group concentration range 50–100 pg/g lipid
[8] = patient group concentration range >100 pg/g lipid

SMILES | Second-order coefficient (equivalent to minus change in apparent elimination rate in 2006) [1, 3] | First-order coefficient (equivalent to minus apparent elimination rate) [1, 4] | First-order coefficient (equivalent to minus apparent elimination rate) [1, 5] | Second-order coefficient (equivalent to minus change in apparent elimination rate in 2006) [1, 5] | First-order coefficient (equivalent to minus apparent elimination rate) [1, 6] | Second-order coefficient (equivalent to minus change in apparent elimination rate in 2006) [1, 6] | First-order coefficient (equivalent to minus apparent elimination rate) [1, 7] | Second-order coefficient (equivalent to minus change in apparent elimination rate in 2006) [1, 7] | First-order coefficient (equivalent to minus apparent elimination rate) [1, 8] | Second-order coefficient (equivalent to minus change in apparent elimination rate in 2006) [1, 8] | apparent half-life ([2]; Yusho patients with blood 2,3,4,7,8-PeCDF ≥50 pg/g lipid, first of two groups) | change in blood levels over time ([2]; Yusho patients with blood 2,3,4,7,8-PeCDF ≥50 pg/g lipid, second of two groups) | apparent half-life ([2]; Yusho patients, group that became larger since medical checkups began) | apparent half-life ([2]; Yusho patients, group that became smaller since medical checkups began)
Clc1cc2oc3c(Cl)c(Cl)c(Cl)cc3c2cc1Cl [2,3,4,7,8-PeCDF, 2,3,4,7,8-pentachlorodibenzofuran] | −0.000596 | −0.004032 | −0.000462 | 0.000464 | 0.001669 | 0.000643 | −0.005452 | 0.002124 | −0.008294 | 0.001436 | ≈ 10 years | no reduction | near infinite | around 10 years
Clc1c(Cl)c(Cl)c2c(c1Cl)Oc1c(Cl)c(Cl)c(Cl)c(Cl)c1O2 [OCDD, octachlorodibenzodioxin] | −0.006366 | −0.01433 | −0.01954 | −0.003289 | −0.02054 | −0.001897 | −0.01224 | −0.002991 | −0.009034 | −0.004341 |  |  |  | 
